Consider 1 compound from patent US20200121884A1, “BIOACTIVATION METHOD FOR ENHANCING NEURAL ACTIVITY AND BLOOD C[…] OF LIVING BODY” (Aqua Bank CO.,LTD., priority 2017, published 2020).

Molecules are shown by their SMILES.

Test [1] deals with healthy women in their 20's to 30's. The following applies: 17 subjects, before vs after suctioning, Table 2 and FIG. 2. As for the experimental part:
(§1) In the verification test using this method, hydrogen mainly produced by the hydrogen generating device (an electrolytic hydrogen gas suction tool 100 which will be described later) is orally suctioned. More specifically, hydrogen generated by the hydrogen generatingor device 100 is suctioned by spontaneous breathing for approximately 10 minutes. The amount of hydrogen generated per minute is 8 cc per minute by electrolysis (4 cc of oxygen is also generated at the same time) and thus, 12 cc per minute of a gas mixture of oxygen/hydrogen is generated. This gas mixture is suctioned by spontaneous breathing. […]
By paying attention to a physiological reaction that a skin temperature of a distal end section (the forehead center part and a first knuckle-joint cushion side part of the index finger are measured this time) is changed in accordance with predominance of the sympathetic nervous activity, the change in the skin temperature is measured by a temperature sensor over time before and after drinking of the hydrogen solution. The temperature sensor body has an approximate size of a thickness of 1 mm and a diameter of 3 mm, and the change in the skin temperature is measured by a recorder in a wired manner from the sensor.

Test [2] has the same test system. The following applies: 17 subjects, subjective five-grade evaluation, FIG. 6. As for the experimental part: (§2) In the verification test using this method, hydrogen mainly produced by the hydrogen generating device (an electrolytic hydrogen gas suction tool 100 which will be described later) is orally suctioned. More specifically, hydrogen generated by the hydrogen generatingor device 100 is suctioned by spontaneous breathing for approximately 10 minutes. The amount of hydrogen generated per minute is 8 cc per minute by electrolysis (4 cc of oxygen is also generated at the same time) and thus, 12 cc per minute of a gas mixture of oxygen/hydrogen is generated. This gas mixture is suctioned by spontaneous breathing. Normally, since an adult suctions approximately 5 litters of air per minute under spontaneous breathing, assuming that all the generated gas mixture is suctioned, the gas mixture at 0.24% at the maximum (hydrogen 0.18%, oxygen 0.06%) is contained in an expiratory air.
The subjects were 20 selected subjects, grouped into two groups, considering the ages and test time slots (morning and afternoon), and measurement was conducted for 10 subjects a day.
The testing method is as follows: • (1) In the main test, each subject should suction hydrogen. • (2) Tests/evaluations which will be described later shall be conducted for each subject while each subject is suctioning hydrogen, and by comparing/examining each evaluation before and after the suctioning, physiological effects by hydrogen is verified. • (3) For the subject who is sitting on a chair for measurement with his/her eyes open, a test manager or a test cooperator prepares a hydrogen generating tool (not generating hydrogen) which is a control and assigns it to the subject. The subject shall put his/her mouth to a nozzle 5 of an electrolytic hydrogen gas suction tool 100 which is this hydrogen generating device (see FIGS. 7 to 10) or a tube portion connected to that and normally breath for approximately 10 minutes. After that, each measurement which will be described later is conducted at any time. After that, the subject puts his/her mouth to the nozzle 5 of the electrolytic hydrogen gas suction tool 100 which generates hydrogen or the tube portion connected to that as a subject sample and suctions hydrogen for 10 minutes similarly. After that, each measurement is made. If abnormality is found in the subject while the subject is suctioning hydrogen, the test manager or the test cooperator shall immediately stop the suctioning. When the suctioning of hydrogen is stopped, the practitioner shall record the fact of the stop and suctioning time in a clinical report. • (4) The test manager shall check if a harmful phenomenon has occurred in the subject during the test or not.
For an action of the central nervous activity by hydrogen, a brain stress test utilized for the purpose of evaluating an activity degree and a stress degree of the brain is conducted, and the brain activity degree (degree of fatigue) is measured by a flicker device. Moreover, influences of a sight function, a skin sensibility function, a gravity balance function and the like are measured by a brain executive function meter. For a change in emotional feelings, an ability of concentration, sleepiness and the like are examined by interview by using a multilateral emotional state scale. The respective measurements will be described in brief below.

The test system is the same in test [3]. Conditions: 17 subjects, Table 4 and FIG. 5. Here is the method: as §1
(§3) For an action of the central nervous activity by hydrogen, a brain stress test utilized for the purpose of evaluating an activity degree and a stress degree of the brain is conducted, and the brain activity degree (degree of fatigue) is measured by a flicker device. Moreover, influences of a sight function, a skin sensibility function, a gravity balance function and the like are measured by a brain executive function meter. […]
Actions to the brain executive functions (right-and-left cognitive function, sight function, short-time memory, skin sensibility, gravity balance and the like are comprehensively analyzed) are analyzed (measurement instrument: Brain executive function meter by Anima).

The test system is the same in test [4]. The following applies: 17 subjects, evaluation in score. As for the experimental part: as §2, with “air. […]” for “air.”
as §3

Test [5] has the same test system. The following applies: 17 subjects, before vs after suctioning, Table 1 and FIG. 1. As for the experimental part: as §2
The subjects were 20 selected subjects, grouped into two groups, considering the ages and test time slots (morning and afternoon), and measurement was conducted for 10 subjects a day. […]

With `[HH]` [hydrogen], the “peripheral skin temperature, change by hydrogen suctioning” value in test [1] is listed as “significantly raised”. Also, in test [2], the “fatigue feeling, change by hydrogen suctioning” value is reported as “decreased”; the “feeling of concentration, change by hydrogen suctioning” value is “significantly raised”; the “feeling of exhilarating, change by hydrogen suctioning” value is given as “significantly raised”; the “feeling of refreshing, change by hydrogen suctioning” value is “significantly raised”. In test [2], the “spontaneous stress, change by hydrogen suctioning” value is on record as “decreased”. For the same compound, in test [3], the “right-and-left cognitive function, change by hydrogen suctioning” value is “remarkable improvement” and the “short-term memory, change by hydrogen suctioning” value is given as “remarkable improvement”. Moreover, the “brain stress, change by hydrogen suctioning” value in test [4] (Table 3 and FIG. 3) is “significantly decreased”. Moreover, the “brain rotation degree score, change by hydrogen suctioning” value in test [4] (Table 3 and FIG. 4) is listed as “significantly raised”. Also, in test [5], the “pupil contraction rate (CR value), change by hydrogen suctioning” value is listed as “significantly increased”.
